According to PubChem BioAssay (NCI):
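Dose response: 5 concentrations. Exposure: 48 h. Format: 96-well plates. Endpoint: linear interpolation; highest concentration if not reached. GI50 = concentration required for 50% inhibition of growth. TGI denotes the concentration required for complete inhibition of growth.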

test system: MOLT-4 leukemia; experiment: inhibition of tumour cell growth, NCI panel, 48 h

**Q.** What does the source list for c1ccc2c(c1)c1ccccc1c1ccccc21?
**A.** GI50: 77.3 µM; TGI: > 100 µM

**Q.** Which results are given for NCCN.O=C([O-])[O-].O=C([O-])[O-].[Co+3].[K+]?
**A.** GI50: > 100 µM; TGI: > 100 µM

**Q.** Which results are given for NC(=O)CNc1ccc([As]=[As]c2ccc(NCC(N)=O)cc2)cc1 (configuration not stated)?
**A.** GI50: 9.29 µM; TGI: > 100 µM

test system: COLO 205 colon; experiment: inhibition of tumour cell growth, NCI panel, 48 h

**Q.** Which TGI does the source give for CCc1cccc(C)c1NC(=O)CC1C(=O)Nc2ccccc2S1=O (configuration not stated) here?
**A.** Its TGI is > 100 µM.

**Q.** For Cc1ccc(N2C(=O)N(c3ccc(C)cc3)C3(SC=NN3C)C2=O)cc1 (configuration not stated), which TGI is on record?
**A.** The TGI was > 100 µM.

**Q.** With O=C1c2ccc3c4ccccc4n(-c4ccccc4)c3c2C(=O)N1c1ccc(Cl)cc1 as the compound, how does the TGI read?
**A.** Its TGI is > 100 µM.

**Q.** With Cc1ccc2c(c1-c1ccccc1)C(=O)OC2 as the compound, how does the TGI read?
**A.** The TGI was > 100 µM.

**Q.** Which results are given for CCC[CH2][Sn]1([CH2]CCC)[O]CC(COc2c(Cl)cc(Cl)cc2Cl)[O]1 (configuration not stated)?
**A.** GI50: 1.39 µM; TGI: 2.75 µM

**Q.** With NC(CCc1ncc(C(=O)O)s1)C(=O)O (configuration not stated) as the compound, how does the TGI read?
**A.** The TGI was > 100 µM.

**Q.** For CSc1ccc2c(cc1=O)[C@@H](NC(=O)c1cc(O)c(O)c(O)c1)CCc1cc(O)c(O)c(O)c1-2, which TGI is on record?
**A.** The TGI was 75.3 µM.

**Q.** COc1cc(-c2nnc3n2NC=C(C(=O)O)S3)cc(OC)c1OC was tested. Which TGI did it give?
**A.** The TGI was > 70.3 µM.

**Q.** C[P+](C)(C)c1ccccc1 was tested. Which TGI did it give?
**A.** Its TGI is > 100 µM.

**Q.** For O=C1c2ccccc2C(=O)N1C/C=N/NS(=O)(=O)c1ccc(Br)cc1, which TGI is on record?
**A.** The TGI was > 100 µM.

**Q.** For COc1cc(/C=C/C(=O)Oc2ccccc2)ccc1C(=O)O/C=C/c1ccccc1, which TGI is on record?
**A.** Its TGI is > 100 µM.

**Q.** With NC(=O)c1cn(Cc2ccccc2)c(=O)n1Cc1ccccc1 as the compound, how does the TGI read?
**A.** Its TGI is > 100 µM.

**Q.** How did the TGI turn out when Cc1c(Cl)cccc1NC(=O)c1cccc([N+](=O)[O-])c1O was run?
**A.** The TGI was 27.3 µM.

**Q.** CC1COS(=O)O1 (configuration not stated) was tested. Which TGI did it give?
**A.** Its TGI is > 100 µM.

**Q.** CC1CCC(C(C)(C)c2ccccc2)C(=O)C1 (configuration not stated) was tested. Which TGI did it give?
**A.** Its TGI is > 100 µM.

**Q.** Which TGI does the source give for O=C1CC2CCN(C(=O)c3ccccc3)CC2CCN1 (configuration not stated) here?
**A.** Its TGI is > 100 µM.

**Q.** With O=C1C=CC(=CC=C2C=CN(CCCCCCCCCCC(=O)NCCCCCCCCCCCC(=O)O)C=C2)C=C1 as the compound, how does the TGI read?
**A.** The TGI was > 100 µM.

**Q.** For CNC(C)[C@H]1CCC2C3CC=C4C(=O)[C@@H](NC(=O)C=C(C)C)CC[C@]4(C)C3CC[C@@]21C (some centres not stated), which GI50 is on record?
**A.** The GI50 was 1.51 µM.

**Q.** What about the TGI of the same compound?
**A.** The TGI was 2.99 µM.

**Q.** Clc1nc(Cl)c2ncn(Cc3ccccc3Cn3cnc4c(Cl)nc(Cl)nc43)c2n1 was tested. Which GI50 did it give?
**A.** Its GI50 is 2.89 µM.

**Q.** What about the TGI of the same compound?
**A.** The TGI was > 26.3 µM.

**Q.** Which TGI does the source give for C1COCCSC2=C(SCCO1)SC(=C1SC3=C(SCCOCCOCCS3)S1)S2 here?
**A.** Its TGI is > 100 µM.

**Q.** Which results are given for O=C(Nc1ccc(Cl)cc1)Nc1nccs1?
**A.** GI50: 0.75 µM; TGI: 6.13 µM

**Q.** How did the TGI turn out when CC(C)(C)c1cc(C(=O)/C=C/c2ccc(C(=O)O)cc2)cc(C(C)(C)C)c1 was run?
**A.** Its TGI is 4.73 µM.

**Q.** With COc1cc(/C=N\O[Si](C)(C)C(C)(C)C)ccc1O[Si](C)(C)C(C)(C)C as the compound, how does the TGI read?
**A.** Its TGI is > 100 µM.

**Q.** Cc1noc2c1-c1ccccc1C(c1ccc(Cl)cc1)=N[C@H]2CC(N)=O was tested. Which GI50 did it give?
**A.** Its GI50 is 0.646 µM.

**Q.** And the TGI?
**A.** The TGI was > 51.7 µM.

**Q.** What does the source list for O=C(N/N=C/c1ccc(O)cc1O)c1cccnc1?
**A.** GI50: 2.8 µM; TGI: > 100 µM

**Q.** What does the source list for O=C(NNc1cnccn1)c1nc2cc(F)ccc2n2cccc12?
**A.** GI50: 0.331 µM; TGI: > 100 µM

**Q.** With NCCCOc1cc(Cl)ccc1NC(=O)c1cc2ccccc2cc1OCCCN as the compound, how does the GI50 read?
**A.** Its GI50 is 1.31 µM.

**Q.** And the TGI?
**A.** The TGI was 2.79 µM.

**Q.** What does the source list for NCCCOc1cc2ccccc2cc1C(=O)NCCCOc1cc2ccccc2cc1C(=O)Nc1ccc(Cl)cc1O?
**A.** GI50: 1.7 µM; TGI: 3.34 µM

**Q.** For O=C1C2[C@@H](C(=O)N1c1ccc(Br)cc1)C13C(=CC2([N+](=O)[O-])[C@@H]2C(=O)N(c4ccc(Br)cc4)C(=O)[C@@H]21)c1ccccc1N3c1ccccc1 (some centres not stated), which TGI is on record?
**A.** Its TGI is > 100 µM.

**Q.** Which results are given for CCOC(=O)C1=C(N)Oc2c(sc3c(C)cccc23)C1c1ccc(F)cc1 (configuration not stated)?
**A.** GI50: 0.633 µM; TGI: 5.77 µM

**Q.** For O=C1/C(=C/N2N=C(c3ccc4ccccc4c3)CC2c2ccccc2O)SC(=S)N1c1cccnc1 (configuration not stated), which GI50 is on record?
**A.** The GI50 was 1.88 µM.

**Q.** What about the TGI of the same compound?
**A.** The TGI was > 100 µM.

**Q.** For NC(N)=N/N=C(\N=Nc1ccccc1)c1ccc(Cl)cc1, which GI50 is on record?
**A.** The GI50 was 2.46 µM.

**Q.** And the TGI?
**A.** The TGI was 5.36 µM.

**Q.** With Nc1ccc(C2=N/C(=C\c3cccc(N)c3)C(=O)O2)cc1 as the compound, how does the TGI read?
**A.** The TGI was > 100 µM.

**Q.** For c1ccc2c(c1)c1ccccc1c1ccccc21, which GI50 is on record?
**A.** Its GI50 is > 100 µM.

**Q.** And the TGI?
**A.** The TGI was > 100 µM.

**Q.** Which GI50 does the source give for NCCN.O=C([O-])[O-].O=C([O-])[O-].[Co+3].[K+] here?
**A.** The GI50 was > 100 µM.

**Q.** What about the TGI of the same compound?
**A.** The TGI was > 100 µM.

**Q.** With NC(=O)CNc1ccc([As]=[As]c2ccc(NCC(N)=O)cc2)cc1 (configuration not stated) as the compound, how does the GI50 read?
**A.** Its GI50 is 7.83 µM.

**Q.** And the TGI?
**A.** The TGI was 22 µM.
